pIC50: −log10 of the molar value. The source made the active and inactive calls.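 The calls were made as follows: active = IC50 on parental Ba/F3 cells at or below 10 µM; inactive = IC50 above 10 µM.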
What follows are compounds tested on parental Ba/F3 viability, CellTiter-Glo ATP luminescence (assay: parental Ba/F3 viability inhibition, dose response, counter-screen for JAK2V617F inhibitor project, cell-based, luminescence (AID 1699)).

SMILES	pIC50	IC50
O=S(=O)(c1cccs1)N1CCN(c2ccc(O)cc2)CC1	5.25	–
O=C(CCl)NC(=O)NC12CC3CC(CC(C3)C1)C2	5.36	–
CC(C)C1C(C#N)=C(N)Oc2n[nH]c(-c3ccc4ccccc4c3)c21 (configuration not stated)	5.45	–
COc1ccc([N+](=O)[O-])c(S(=O)(=O)c2ccc(Cl)cc2)n1	5.49	–
Nc1nc(CCl)nc(Nc2ccc3ccccc3c2)n1	5.97	–
c1ccc2c(CN3CCCCCC3)c[nH]c2c1	–	10.7 µM (inactive)
CC1CCN(CCCNC(=O)c2cc3c(Cl)nc4ccccc4c3s2)CC1	5.36	–
COc1ccc(-n2nnnc2SCC(=O)c2ccc(O)c(O)c2)cc1	5.48	–
COC(=O)COc1cccc2c(=O)n(CC(=O)NCc3ccc(F)cc3)ccc12	5.48	–
CCCC(=O)N(C1CC(C)C(C#N)(C#N)C1(C#N)C#N)N(C)C (configuration not stated)	5.32	–
COc1ccc(Nc2nc(N)nc(CCl)n2)cc1	5.58	–
c1ccc(CCNc2nc(-c3ccccn3)nc3ccccc23)cc1	5.52	–
O=C(CCl)N=c1sccn1Cc1ccc(Cl)cc1Cl	6.19	–
COC1(OC)C(/C=C/c2ccc(Cl)cc2)C(C#N)(C#N)C1(OC)OC (configuration not stated)	5.11	–
CCOc1ccc(C(=O)C(CN2CCOCC2)c2ccccc2)cc1 (configuration not stated)	5.62	–
C#CCSc1nsc(SCC#C)c1C#N	5.55	–
Nc1nc(CCl)nc(N(c2ccccc2)c2ccccc2)n1	5.90	–
O=C(CCl)N=c1sccn1Cc1cccc2ccccc12	5.98	–
Cc1cc2[nH]c3c(c[n+](C)c4ccccc34)c2cc1C	5.41	–
CCOc1ccc(Nc2nc(N)nc(CCl)n2)cc1	5.72	–
CC(C)(C)c1cc(NC(=O)CCl)n(-c2ccccc2)n1	5.42	–
O=C1/C(=C/c2ccc(O)c(O)c2)SC(=S)N1Nc1ccccc1	–	11 µM (inactive)

SMILES	pIC50	IC50
c1ccc2c(c1)CSc1sccc1C2=C1CCNCC1	–	10.5 µM (inactive)
Clc1ccc(-n2nnnc2Sc2ncnc3sccc23)cc1	5.54	–
O=S(=O)(c1cnc(Cl)c(Cl)c1)N1CCc2ccccc21	–	15.8 µM (inactive)
O=c1oc2ccc(Cl)cc2nc1/C=C(\O)c1ccco1	5.08	–
Cc1ccc2nc(C)cc(Nc3ccc([N+](=O)[O-])cc3)c2c1	5.48	–
CC(C)(C)OC(=O)N[C@@H](Cc1ccccc1)c1nnc(S(=O)(=O)Cc2cccc(F)c2)o1	5.43	–
COC(=O)/C=C/c1ccc(OC(=O)OC)c(OC(=O)OC)c1	–	10.7 µM (inactive)
O=C(/C=C/c1ccc(O)c(O)c1)c1ccc(S(=O)(=O)N2CCCCCC2)cc1	5.12	–
Cc1ccc(Nc2nc(N)nc(CCl)n2)cc1	5.85	–
Cc1nc([N+](=O)[O-])c(Br)n1Cc1ccc(Cl)c(Cl)c1	5.07	–
[O-][N+]1=c2ccc(Nc3ccccc3)cc2=NC12CCCCC2	5.28	–
CC1CCCC(NC(=O)NC(=O)CCl)C1C (configuration not stated)	–	10.6 µM (inactive)
Cc1ccccc1CS(=O)(=O)c1nnc([C@H](Cc2ccccc2)NC(=O)OC(C)(C)C)o1	5.27	–
N#C/C(=C\c1ccc(O)c(O)c1)C(=O)NCCCc1ccccc1	5.22	–
Cc1ccc(C)c(Sc2ccc(NC(=O)CCl)cc2)c1	5.14	–
Cc1nn2c(NCc3ccccn3)c3c(nc2c1-c1ccccc1)CCC3	5.37	–
O=C1C=CC(=O)N1CCNc1ncc(C(F)(F)F)cc1Cl	5.75	–
Cc1ccc(NC(=O)C(=Cc2ccc(C(=O)O)cc2)C(=O)Nc2ccc(C)cc2C)c(C)c1	5.26	–
COc1ccccc1-c1nnc(Sc2nc([N+](=O)[O-])nn2C)o1	5.33	–
O=C1C=CCC(/C=C/c2ccccc2)O1 (configuration not stated)	5.07	–
CC(C)(C)/C(O)=C/c1nc2cc(Cl)ccc2oc1=O	5.02	–
O=C(NC1C=CS(=O)(=O)C1)c1sc2ccccc2c1Cl (configuration not stated)	–	13.8 µM (inactive)

SMILES	pIC50	IC50
O=C(Nc1cccc(NC(=O)c2cccs2)c1)c1ccc([N+](=O)[O-])o1	5.43	–
COc1ccc(-c2cnc3c(c2)CCC3(C#N)C#N)cc1	5.68	–
O=C(OCn1ncc(Cl)c(Cl)c1=O)c1ccc(F)cc1	5.94	–
Cc1cccc(N(Cc2ccccc2)C(=O)CCl)c1	5.79	–
Nc1nc(N)c2nc(-c3ccccc3)c(N)nc2n1	5.34	–
CCCn1c(CN(C)Cc2ccccc2)nc2c1c(=O)n(C)c(=O)n2C	5.09	–
CCCCn1c(=N)n(CC(=O)c2ccc(Br)s2)c2ccccc21	5.36	–
Cc1ccc(Cn2ccsc2=NC(=O)CCl)cc1	5.11	–
COc1ccc(OC)c(NS(=O)(=O)c2ccc(SC)cc2)c1	–	12.4 µM (inactive)
O=C(C=C=Nc1ccccc1)C(=O)N=C=Cc1ccccc1	–	10.7 µM (inactive)
O=c1cnn([C@@H]2O[C@H](CO)[C@@H](O)[C@H]2O)c(=O)[nH]1	5.17	–
Cc1[nH]c2ccccc2c(=O)c1C(=O)/C=C/c1ccccc1	5.51	–
Cc1[nH]c(=O)c(C(=O)/C=C/c2ccccc2F)c2c1CCCC2	5.29	–
COc1cccc(N(C(=O)CCl)C(C(=O)NCCc2ccccc2)c2cccs2)c1 (configuration not stated)	5.87	–
COc1ccc(C2=Nn3c(nnc3C3CCCCC3)SC2)cc1OC	5.12	–
COc1ccc(-c2cc(-c3cc(C)ccc3O)[nH]n2)cc1	5.06	–
CN(C)C(=S)SSC(=S)N(C)C	6.65	–
Oc1ccc(/C=N/N2CCN(C3c4ccccc4-c4ccccc43)CC2)cc1O	5.25	–
CC1CCCN(CCCNC(=O)c2cc3c(Cl)nc4ccccc4c3s2)C1 (configuration not stated)	5.46	–
Oc1ccccc1OCCOc1ccccc1OCCOc1ccccc1O	5.15	–
CNC(=O)c1nnsc1S(=O)c1ccc(Cl)cc1 (configuration not stated)	5.65	–
O=C(CSc1nnnn1-c1ccc(F)cc1)c1ccc(O)c(O)c1	–	11.1 µM (inactive)

SMILES	pIC50	IC50
Cc1nc2c(=O)n(C)c(=O)n(C)c2nc1Cl	5.34	–
O=C(/C(=N/N=C/c1ccc(O)c(O)c1)c1ccccc1)c1ccccc1	5.78	–
COc1ccc2nc(C)cc(Sc3nc4ccccc4s3)c2c1	5.16	–
COc1cccc(F)c1C(C[N+](=O)[O-])c1c(N)n(C)c(=O)n(C)c1=O (configuration not stated)	5.37	–
COc1ccccc1C(C[N+](=O)[O-])c1c(N)n(C)c(=O)n(C)c1=O (configuration not stated)	5.19	–
CS(=O)(=O)c1nc(-c2ccco2)cc(C(F)(F)F)n1	5.64	–
CCCc1nc2ccccc2c(=O)n1/N=C/c1ccc(O)c(O)c1	5.44	–
Cc1nc([N+](=O)[O-])c(Br)n1CC(=O)c1ccc2ccccc2c1	5.43	–
COc1ccccc1N(C(=O)CCl)c1cn(C(C)=O)c2ccccc12	5.34	–
CCCn1c(CC)nc([N+](=O)[O-])c1S(=O)(=O)c1ccccc1	5.23	–
COc1cc(/C=C2\COC/C(=C\c3ccc(O)c(OC)c3)C2=O)ccc1O	5.44	–
CN(c1ccccc1)S(=O)(=O)c1cccc(C(=O)NCCc2ccc(O)c(O)c2)c1	–	> 40 µM (inactive)
COc1cccc(/C=N/NC(=O)c2[nH]c(C)c(C(=O)N/N=C/c3cccc(OC)c3O)c2C)c1O	5.18	–
COc1ccc(N2CCc3c(C)nc4c(OC)cc(OC)cc4c32)c(OC)c1	5.08	–
C/C(=C\c1ccc(N(C)C)cc1)[N+](=O)[O-]	5.46	–
Cc1cccc(Nc2nc(N)nc(CCl)n2)c1C	5.68	–
Cc1oc2c(O)c(O)ccc2c(=O)c1-c1cnn(-c2ccccc2)c1	5.53	–
Cc1cc(SCC(=O)N/N=C/c2ccc(O)c(O)c2)c(C)cc1Br	–	10.7 µM (inactive)
O=C(CCl)N=c1sccn1Cc1ccccc1Cl	5.95	–
Cc1cccc(CS(=O)(=O)c2nnc([C@H](Cc3ccccc3)NC(=O)OC(C)(C)C)o2)c1	5.44	–
Cc1cccc(OCC(=O)Nc2cc(C)ccc2O)c1	–	> 40 µM (inactive)
CCN1C/C(=C/c2ccc(OC)c(O)c2)C(=O)/C(=C/c2ccc(OC)c(O)c2)C1	5.82	–

SMILES	pIC50	IC50
O=C(Oc1cccc2c(O)cccc12)c1ccccc1	5.19	–
O=C1C=C(Nc2ccc(O)cc2)C(=O)c2ccccc21	5.12	–
O=C(CCl)N(C/C=C/c1ccccc1)c1ccc2c(c1)OCCO2	5.60	–
CCCOc1ccc(C(=O)C(CN2CCOCC2)c2ccccc2)cc1 (configuration not stated)	5.61	–
COc1cc2c(cc1OC)-c1cc(N3CCCc4ccccc43)nc(=O)n1CC2	–	35.6 µM (inactive)
CCN(CC)S(=O)(=O)c1cccc(-n2c(O)c(C=Nc3ccccc3C(=O)O)c3ccccc3c2=O)c1	–	> 40 µM (inactive)
O=C(O)c1[nH]c(=O)[nH]c(=O)c1F	5.16	–
Cc1cccc(NC(=O)c2ccc([N+](=O)[O-])o2)c1	5.16	–
CCCCCCN(C(=O)CCl)c1ccccc1	5.68	–
O=C(CCl)NCc1cc(-c2ccc(Cl)cc2)no1	5.08	–
COc1ccc(Nc2ccc3c(c2)=NC2(CCCCC2)[N+]=3[O-])cc1	5.77	–
Cc1ccccc1CS(=O)(=O)c1nnc([C@H](CC(C)C)NC(=O)OC(C)(C)C)o1	5.78	–
Cc1nn(Cc2ccc(Cl)cc2Cl)c(C)c1NC(=O)CCl	–	11.4 µM (inactive)
O=C(Nc1cccc2c1[nH]c1ccccc12)C(F)(F)F	–	13.7 µM (inactive)
O=C(OCn1ncc(Cl)c(Cl)c1=O)c1ccccc1Cl	5.92	–
Oc1ccc(Cl)cc1N=Cc1sc2ccccc2c1Cl	5.23	–
Cc1c(Cc2ccccc2)c(=O)oc2c(O)c(O)ccc12	5.06	–
O=S(=O)(c1cnc(Cl)c(Br)c1)N1CCc2ccccc21	5.28	–
CCC(C)[C@@H](NC(=O)OC(C)(C)C)c1nnc(S(=O)(=O)Cc2cccc(C)c2)o1 (some centres not stated)	5.33	–
